{
  "source": "patent US20260273028A1",
  "about": "“PEROXIDASE COMPOSITIONS CONTAINING IMPROVED ENHANCING AGENTS” (FLEN HEALTH PHARMA NV, priority 2022, published 2026)",
  "key": {"IL-6": {"test_system": "IL-6", "experiment": "Direct neutralization of secreted IL-6 in cell culture supernatants, ELISA", "assay_type": "biochemical", "details": "isoleucine 0.05%; 3 h", "protocol": "(§1) First, the effect on the secretion of these mediators by macrophages was evaluated. Secondly, the direct neutralization of already secreted mediators was evaluated. Both were measured by the state-of-the-art ELISA technique. Secondly, the direct neutralization of secreted pro-inflammatory mediator representatives IL-6, TNFa and MMP9 was measured in parallel. In brief, cell culture supernatants were collected after 48 h of macrophage differentiation and were centrifuged at 150 g for 5 min to remove cell debris. […] Treated supernatants were kept frozen until being processed for ELISA. IL-6, TNFa and MMP9 ELISA kits were purchased from BioTechne and the experiment was performed according to manufacturer's instructions. Briefly, 96-well plates were coated with capture antibodies overnight at room temperature. […] After several washing steps, the corresponding detection antibody, which is coupled to biotin, was incubated for 2 h. […] The reaction was stopped by the addition of sulphuric acid and absorbance at 450 nm was read with a plate reader. Absorbance is proportional to the concentration of analyte present in the medium, which was calculated based on a standard curve realized with recombinant IL-6, TNFa and MMP9."}, "S. aureus (ATCC®6538™)": {"test_system": "S. aureus (ATCC®6538™)", "experiment": "Microbial challenge testing in alginogel with GOX+EPO", "assay_type": "cell-based", "details": "isoleucine 0.0025% (w/w)", "protocol": "In a further experiment, the efficacy of antimicrobial activity enhancement by isoleucine of the GOX combination with eosinophil peroxidase (EPO) was evaluated. In view hereof, a test was set up as described in the section on ‘challenge testing’ described above with the difference that EPO was used instead of LPO.\nIn brief, microbial challenge testing was performed according to the method described in the European Pharmacopoeia current version chapter 5.1.3 ‘Efficacy of antimicrobial preservation’, but with adapted time points (0, 10, 20, 30, 40, 50, 60, 70 and 80 min instead of 0, 2, 7, 14 and 28 days). […] After preparation, a homogenous sample of 10 g was transferred into a 50 ml conical tube for each alginogel to be evaluated. […] Then, the 50 ml conical tubes containing the alginogel samples to be evaluated were inoculated with 100 μl of the designated inoculum and incubated at 25° C. for 80 minutes. At the start (time point 0) and after 0, 10, 20, 30, 40, 50, 60, 70 and 80 min, the number of viable microorganisms per gram product (expressed as CFU/g) was determined by transferring a sample of 0.5 g of the product into a 15 ml conical tube containing 4.5 ml of sterile diluent and applying general dilution and plate count techniques. For each combination evaluated, the absolute counts (expressed as log(CFU/g)) at each timepoint were visualized in a graph. […]"}, "MMP9": {"test_system": "MMP9", "experiment": "Direct neutralization of secreted MMP9 in cell culture supernatants, ELISA", "assay_type": "biochemical", "details": "isoleucine 0.05%; 3 h", "protocol": "as §1"}, "GOX": {"target": "GOX (Aspergillus niger, UniProt P13006)", "sequence (P13006 17-605)": "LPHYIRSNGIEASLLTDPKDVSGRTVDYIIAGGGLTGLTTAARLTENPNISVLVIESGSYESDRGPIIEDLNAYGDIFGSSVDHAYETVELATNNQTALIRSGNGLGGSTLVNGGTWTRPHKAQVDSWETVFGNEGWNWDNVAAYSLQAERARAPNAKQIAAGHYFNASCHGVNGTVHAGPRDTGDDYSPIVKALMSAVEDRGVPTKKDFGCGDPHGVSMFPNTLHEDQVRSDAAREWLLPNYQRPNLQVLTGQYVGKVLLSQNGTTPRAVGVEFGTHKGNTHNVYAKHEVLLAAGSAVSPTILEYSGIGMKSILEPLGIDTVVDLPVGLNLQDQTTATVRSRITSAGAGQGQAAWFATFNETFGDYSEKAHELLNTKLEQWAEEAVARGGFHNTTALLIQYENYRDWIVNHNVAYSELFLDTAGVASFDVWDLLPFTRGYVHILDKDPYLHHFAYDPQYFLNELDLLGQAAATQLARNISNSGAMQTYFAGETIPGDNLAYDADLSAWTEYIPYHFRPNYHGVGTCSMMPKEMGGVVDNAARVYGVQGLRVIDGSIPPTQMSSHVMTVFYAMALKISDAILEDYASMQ", "experiment": "Glucose oxidase (GOX) activity, spectrophotometric assay", "assay_type": "biochemical", "details": "reference = no potentiator candidate", "protocol": "The natural enzyme GOX is an oxidoreductase that catalyses the oxidation of glucose to gluconic acid and hydrogen peroxide (H2O2) in the presence of water and air. To measure the enzymatic activity of GOX, a standard spectrophotometric assay is performed. In brief, a second oxidoreductase enzyme, peroxidase, and a chromogenic oxygen acceptor, o-dianisidine, are added to the former reaction mix (GOX+glucose+water+air) so that the formation of a coloured compound is achieved that can in turn be measured by spectrophotometry. GOX was tested in 4 different concentrations, i.e., 100, 50, 10 and 1 mg/ml. Each reaction mixture was tested in duplo. In the event GOX activity was evaluated in the presence of a potentiator candidate (=a molecule that might be able to augment the enzymatic activity of GOX), the latter was added in a low and high concentration ranging from 100 to 0.1 mg/ml. The blank consisted of the reaction mix in which the enzymes were absent. After mixing all reaction elements, absorbance was immediately measured with a plate reader (Spectramax ID3, Molecular Devices) every minute for 5 minutes at 35° C. For each combination evaluated, this test was repeated at least 2 times. Results were further analysed in MS Excel and expressed as U/g. Mean blank-corrected data±SD were plotted. Statistical significance compared to the combination without potentiator candidate (reference) was calculated using students' t-tests. Significance is achieved when the obtained p-value is lower than 0,05. Significance levels were defined as p<0.05=*; p<0.01=** and p<0.001=***."}},
  "data": [
    {"smiles": "CC[C@H](C)[C@H](N)C(=O)O", "note": "[Isoleucine, isoleucine]", "values": [
      {"measurement": "additional decrease of already secreted IL-6 (direct neutralization) vs GOX+LPO (1:1) alone", "setting": "IL-6", "result": 29.4, "unit": "%"},
      {"measurement": "time to complete reduction of absolute S. aureus counts", "setting": "S. aureus (ATCC®6538™)", "result": 80, "unit": "min"},
      {"measurement": "additional decrease of already secreted MMP9 (direct neutralization) vs GOX+LPO (1:1) alone", "setting": "MMP9", "result": 27.1, "unit": "%"}
    ]},
    {"smiles": "O=C(O)[C@@H]1CCCN1", "note": "[Proline, proline]", "values": [
      {"measurement": "GOX activity compared to reference", "setting": "GOX; enhancer 0.1 mg/ml", "result": "significant increase"},
      {"measurement": "GOX activity compared to reference", "setting": "GOX; enhancer 100 mg/ml", "result": "significant increase"}
    ]}
  ]
}
